In the NIST ThermoML archive (doi:10.1021/je700740e):
± gives the expanded uncertainty stated by the source.

Details: Liquid; for mass density: Vibrating tube method; for viscosity: Vibrating wire viscometry

CCOC(=O)CCCCC(=O)OCC [diethyl hexanedioate]
Details	mass density [kg/m3]	viscosity [mPa·s]
303.15 K, 100 kPa	998.842 ± 2	2.786 ± 0.059
303.15 K, 4520 kPa	1001.81 ± 2	2.909 ± 0.062
303.15 K, 9610 kPa	1005.24 ± 2	3.061 ± 0.065
303.15 K, 14700 kPa	1008.51 ± 2	3.226 ± 0.068
303.15 K, 19790 kPa	1012.52 ± 2	3.343 ± 0.071
313.15 K, 100 kPa	989.86 ± 2	2.257 ± 0.048
313.15 K, 4520 kPa	993.535 ± 2	2.335 ± 0.05
313.15 K, 9630 kPa	996.693 ± 2	2.472 ± 0.053
313.15 K, 14750 kPa	1000.42 ± 2	2.589 ± 0.055
313.15 K, 19890 kPa	1003.55 ± 2	2.726 ± 0.058
323.15 K, 100 kPa	981.395 ± 2	1.846 ± 0.039
323.15 K, 4520 kPa	984.72 ± 2	1.932 ± 0.041
323.15 K, 9600 kPa	988.74 ± 2	2.021 ± 0.043
323.15 K, 14690 kPa	992.273 ± 2	2.126 ± 0.045
323.15 K, 19710 kPa	995.581 ± 2	2.23 ± 0.048
333.15 K, 100 kPa	971.597 ± 2	1.58 ± 0.034
333.15 K, 4520 kPa	975.516 ± 2	1.642 ± 0.035
333.15 K, 9630 kPa	979.685 ± 2	1.716 ± 0.037
333.15 K, 14710 kPa	983.483 ± 2	1.802 ± 0.039
333.15 K, 19710 kPa	987.107 ± 2	1.886 ± 0.04
343.15 K, 100 kPa	962.622 ± 1.9	1.35 ± 0.029
343.15 K, 4510 kPa	966.544 ± 2	1.407 ± 0.03
343.15 K, 9600 kPa	970.932 ± 2	1.471 ± 0.032
343.15 K, 14700 kPa	975.031 ± 2	1.542 ± 0.033
343.15 K, 19700 kPa	978.932 ± 2	1.608 ± 0.035
353.15 K, 100 kPa	953.224 ± 1.9	1.179 ± 0.026
353.15 K, 4520 kPa	957.353 ± 1.9	1.227 ± 0.027
353.15 K, 9620 kPa	962.118 ± 1.9	1.28 ± 0.028
353.15 K, 14710 kPa	966.479 ± 2	1.338 ± 0.029
353.15 K, 19680 kPa	970.392 ± 2	1.402 ± 0.03
363.15 K, 100 kPa	943.203 ± 1.9	1.041 ± 0.023
363.15 K, 4520 kPa	948.203 ± 1.9	1.078 ± 0.023
363.15 K, 9610 kPa	953.106 ± 1.9	1.129 ± 0.025
363.15 K, 14700 kPa	957.919 ± 1.9	1.174 ± 0.025
363.15 K, 19710 kPa	962.125 ± 1.9	1.226 ± 0.027
373.15 K, 100 kPa	934.753 ± 1.9	0.914 ± 0.02
373.15 K, 4520 kPa	939.138 ± 1.9	0.956 ± 0.021
373.15 K, 9620 kPa	944.359 ± 1.9	1 ± 0.022
373.15 K, 14680 kPa	948.986 ± 1.9	1.046 ± 0.023
373.15 K, 19910 kPa	953.741 ± 1.9	1.096 ± 0.024

Cc1ccccc1 [toluene]
Details	mass density, 298.15 K [kg/m3]	mass density, 323.15 K [kg/m3]	viscosity, 298.15 K [mPa·s]	viscosity, 323.15 K [mPa·s]
100 kPa	862.5 ± 1.7	–	0.555 ± 0.012	–
120 kPa	–	840.467 ± 1.7	–	0.425 ± 0.01
2300 kPa	864.389 ± 1.7	–	0.569 ± 0.013	–
3340 kPa	–	843.459 ± 1.7	–	0.431 ± 0.01
4400 kPa	865.888 ± 1.7	–	0.58 ± 0.013	–
6340 kPa	–	846.144 ± 1.7	–	0.448 ± 0.01
7430 kPa	868.038 ± 1.7	–	0.593 ± 0.013	–
9600 kPa	–	848.793 ± 1.7	–	0.461 ± 0.011
10400 kPa	870.54 ± 1.8	–	0.597 ± 0.013	–
12470 kPa	871.736 ± 1.8	–	0.613 ± 0.014	–
12750 kPa	–	851.586 ± 1.7	–	0.464 ± 0.011
14490 kPa	873.496 ± 1.8	–	0.617 ± 0.014	–
14770 kPa	–	853.276 ± 1.7	–	0.466 ± 0.011
